Test results: PubChem BioAssay (NCI)
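A five-concentration, 48-hour dose response in 96-well plates underlies each endpoint, interpolated linearly between surrounding concentrations. The concentration for 50% growth inhibition is given as GI50. At the TGI there is no net growth.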

Assays:
Experiment in all cases: NCI tumour cell line growth inhibition, 48 h
[1] = test system: OVCAR-4 ovarian
[2] = test system: OVCAR-8 ovarian
[3] = test system: KM20L2 colon
[4] = test system: DMS 273 small cell lung
[5] = test system: LOX IMVI melanoma
[6] = test system: U251 CNS
[7] = test system: SW-620 colon
[8] = test system: HCT-116 colon
[9] = test system: UACC-257 melanoma
[10] = test system: PC-3 prostate

Structure (SMILES) | TGI [1] [µM] | TGI [2] [µM] | TGI [3] [µM] | TGI [4] [µM] | TGI [5] [µM] | TGI [6] [µM] | TGI [7] [µM] | TGI [8] [µM] | TGI [9] [µM] | GI50 [1] [µM] | GI50 [9] [µM] | GI50 [2] [µM] | GI50 [10] [µM] | TGI [10] [µM] | GI50 [5] [µM] | GI50 [6] [µM] | GI50 [7] [µM] | GI50 [8] [µM]
CC1C=CC(C(N)C(=O)O)O1 (stereo not drawn) | > 100 | > 100 | > 100 | > 100 | > 100 | > 100 | > 100 | > 100 |  |  |  |  |  |  |  |  |  | 
CCOC(=O)c1[nH]c2cc(OC)c(OC)cc2c1CN(C)C | > 100 | > 100 | > 100 |  | > 100 | > 100 | > 100 | > 100 | > 100 |  |  |  |  |  |  |  |  | 
O=C(CCC(=O)Nc1cccc(C(F)(F)F)c1)CC(=O)c1ccc2ccccc2c1 | > 100 | > 100 | > 100 | > 100 | > 100 | > 100 | > 100 | > 100 | > 100 |  |  |  |  |  |  |  |  | 
O=C(N/C(=C\c1ccccc1O)c1nc2ccccc2[nH]1)c1ccccc1 | > 100 | > 100 | > 100 | > 100 | > 100 | > 100 | > 100 | > 100 | > 100 |  |  |  |  |  |  |  |  | 
O=C1C=C2CCCC2C(C(=O)O)(C(=O)O)C1 (stereo not drawn) | > 100 | > 100 |  | > 100 | > 100 | > 100 | > 100 | > 100 | > 100 |  |  |  |  |  |  |  |  | 
N#Cc1nc(C#N)c(Sc2ccccc2)c(Sc2ccccc2)c1Sc1ccccc1 | > 27.8 | 0.911 |  |  | 0.344 | 1.86 | 0.5 |  | 2.94 | 2.74 | 1.37 | 0.287 | 0.753 | 21.5 | 0.17 | 0.51 | 0.232 | 0.301
CC(C)COC1Sc2ccccc2S1 | 53.4 | > 100 | 36.2 | 43.1 | 37.9 | 35.9 | 88.3 |  |  |  |  |  |  |  |  |  |  | 
O=C(Nc1cc(Cl)ccc1O)c1ccccc1Nc1ccnc(C(F)(F)F)c1 | 13.2 | 16.3 |  |  | 22.7 | > 100 | 11.7 | 5.63 | 8.5 | 2.29 | 2.85 | 3.43 | 2.84 | > 100 | 3.2 | 4.91 | 3.15 | 2.2
NS(=O)(=O)c1ccc(NC(=O)C2C(=O)C(=O)N(c3ccc(S(N)(=O)=O)cc3)C2=O)cc1 (stereo not drawn) | > 100 | > 100 | > 100 | > 100 | > 100 | > 100 | > 100 | > 100 | > 100 |  |  |  |  |  |  |  |  | 
CCC(C)C1=C(O)[N+]2([O-])Oc3ccc(C4=C(O)C(=O)C(c5ccc(O)cc5)=C(O)C4=O)cc3OC2(C(C)CC)C(=O)N1O (stereo not drawn) | > 100 | > 100 |  |  | 33.9 | > 100 | > 100 | > 100 | > 100 | > 100 | 11.5 | 6.34 | 6.14 | > 100 | 7.28 | 6.25 | 25.4 | 5.02
CCN(CC)CCN1c2nc3ccccc3cc2Sc2cc3ccccc3nc21 | 13.4 | 8.15 |  |  | 3.03 | 4.48 | 2.99 | 2.78 | 4.06 | 2.74 | 2.04 | 2.43 | 1.71 | 4.84 | 1.57 | 1.95 | 1.53 | 1.4
COc1ccccc1[As]=[As]c1ccccc1OC (stereo not drawn) | 0.146 | 0.194 |  |  | 0.136 | 0.0311 | 0.0403 | 0.0641 | 0.218 | 0.0372 | 0.0775 | 0.0507 | 0.0619 | 0.195 | 0.0384 | 0.0145 | 0.0182 | 0.0245
CCCCCCCCCCCCN=C(N)c1ccc(N2CCN(c3ccc(C(N)=NCCCCCCCCCCCC)cc3)CC2)cc1 | 20.9 | 40.1 |  |  | 23 | 24.9 | 28.1 | 13.8 | > 50 | 8.88 | 26.1 | 11.4 | 9.02 | 20.2 | 12 | 11.3 | 9.31 | 6.9
O=C1Nc2ccccc2/C1=C\c1nc(-c2ccccc2F)n2ccccc12 | 4.49 | 8.12 |  |  | 15.6 | 6.1 | 14.2 | 4.04 | 18.1 | 1.81 | 5.2 | 2.49 | 6.81 | 26.9 | 4.15 | 2.57 | 3.97 | 1.97
CC(=O)/C(Br)=C/c1ccc(Br)o1 | 22 | > 35.8 |  |  | 14.9 | 27.8 | 4.87 | 5.89 | 19.2 | 9.35 | 6.05 | 3.33 | 8.94 | 27.1 | 4.35 | 14.4 | 2.1 | 2.13
N#C/C(=C1\OC(=N)C(c2ccccc2)C1=O)c1ccccc1 (stereo not drawn) | > 100 | > 89.2 | > 100 | > 100 | 91.5 | > 100 | 59.1 | 31.6 | 59.3 |  |  |  |  |  |  |  |  | 
CCCCCCCCCCCCCCCC(=O)OCCOCCOCCOCCOCCOC(=O)CCCCCCCCCCCCCCC | > 100 | > 100 | > 100 | > 100 | > 100 | > 100 | > 100 | > 100 | > 100 |  |  |  |  |  |  |  |  | 
